Results from patent US11466024B2, “Bicylic compound acting as an inhibitor” (CHIA TAI TIANQING PHARMACEUTICAL GROUP CO., LTD., priority 2017, dated 2022).

Columns and labels:
RORC2-LBD = biological target: T1, RORC2-LBD (Homo sapiens, UniProt P51449); assay: In vitro test for inhibitory activity on RORγ: TR-FRET screening (RORC2-LBD / SRC1 peptide interaction); format: biochemical; conditions: Value of the concentration required for 50% inhibition (EC50) of RORγ, 15 nM RORc-LBD, 200 nM SRC1 peptide, 4° C. overnight
T1 sequence (P51449 269-508 limits assumed): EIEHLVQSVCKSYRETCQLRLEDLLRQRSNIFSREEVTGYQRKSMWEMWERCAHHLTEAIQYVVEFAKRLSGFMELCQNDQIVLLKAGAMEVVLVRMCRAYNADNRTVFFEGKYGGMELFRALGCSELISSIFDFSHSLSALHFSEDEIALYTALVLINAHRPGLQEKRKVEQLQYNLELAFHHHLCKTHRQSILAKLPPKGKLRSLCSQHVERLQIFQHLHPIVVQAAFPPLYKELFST
Text: The compounds of the present application was able to regulate (inhibit) the bioactivity of the nuclear receptor RORγ, and the strength of this regulatory (inhibitory) effect could be evaluated by a TR-FRET (time-resolved fluorescence resonance energy transfer) screening system. Nuclear receptor cofactors (co-activators and co-inhibitors) could regulate the transcription of a target gene by the interaction with nuclear receptors. If a ligand (test compound) affected the interaction between the nuclear receptors and the cofactors, this ligand (test compound) was able to regulate the transcription of the corresponding gene.
This method adopted the TR-FRET (time-resolved fluorescence resonance energy transfer) technique to determine the ability of a compound to regulate the interaction between the polypeptide indirectly bound to APC […] (namely, APC was indirectly bound to the polypeptide by binding to Streptavidin and biotin) and RORC2-LBD linked to a europium (Eu)-labeled anti-His antibody (Perkin Elmer #AD0111). In the absence of the compound, RORC2 could bind to an APC-modified polypeptide. If the compound was an agonist, it could enhance the interaction between RORC2 and the APC-modified polypeptide after binding to RORC2. On the contrary, if the compound was an inverse agonist, it could inhibit the interaction between RORC2 and the APC-modified polypeptide after binding to RORC2. When the APC-modified polypeptide and the Eu-labeled anti-His antibody-RORC2-LBD complex approached to each other and the distance therebetween was within a certain distance, energy transfer could occur and a TR-FRET signal was generated.
A buffer solution comprising 50 mM Tris (pH 7.0), 50 mM KCl, 1 mM Na-EDTA, 0.01% BSA (0.1 mg/ml), and 0.1 mM DTT was freshly formulated prior to the experiment.
2.3 Formulation of a RORγ-containing working solution. Prior to the test, a working solution containing 1.67 nM Eu/anti-His and 0.75 μl/well of SF9 cell lysate was freshly formulated, and was placed on ice before use. 25.05 nM of RORγ was added to the working solution.
2.5 Ten concentration gradients were set for each test compound, and duplicate wells were set for each concentration. The formulating method of the test compounds was as follows: […]
2) 15 μl of the RORγ-containing working solution was added to columns 1 to 21 of the tested 384-well plate (the final concentration of Eu/anti-His was 1 nM, and the final concentration of RORg was 15 nM); and […]
9) data analysis was performed using the ratio of the numerical value detected at an emission wavelength of 665 nm to the numerical value detected at an emission wavelength of 615 nm. […]

[1] = tested on: imiquimod-induced psoriasis; assay: In vivo pharmacodynamic study in imiquimod (IMQ)-induced psoriasis model in mice; design: species or system C57BL/6 mice; conditions: for Clinical scores (Mean ± SEM, n = 8): 75 mg/kg
Experimental: 6- to 8-week old female C57BL/6 mice were selected, depilated on the backs, and sensitized two days later except for the sham operation group. On the day of sensitization, the mice were randomly divided into the following 6 groups (8 mice per group). Group I was a sham operation group; Group II was a vehicle control group and PBS was administered; Group III was a positive control group and 5 mg/kg methotrexate was administered; Groups IV, V and VI were ip treatment group, ig treatment group, and topical treatment group of the compound of Example 1, and 75 mg/kg of the compound of Example 1 was administered via intraperitoneal injection, intragastric administration, and dorsal application, respectively. Administration was started on the day of sensitization, once daily for Group III and twice daily for Groups IV to VI. On the day of sensitization, the mice in Groups II to VI were given 60 to 80 mg of imiquimod cream (5%) on the dorsal skin for 4 consecutive days. (Please refer to Bouchaud, G., et al., Epidermal IL-15Ralpha acts as an endogenous antagonist of psoriasiform inflammation in mouse and man. J. Exp. Med., 2013. 210(10): p. 2105-17.)
The mice were weighed daily from the day of sensitization, and the skin scales, induration, and erythema were observed and scored according to a four-grade scoring method: 0 point, no disease; 1 point, mild; 2 points, moderate; 3 points, severe; and 4 points, very severe. (Please refer to Qin, S., et al., Endogenous n-3 polyunsaturated fatty acids protect against imiquimod-induced psoriasis-like inflammation via the IL-17/IL-23 axis. Mol Med Rep, 2014. 9(6): p. 2097-104.)

CCS(=O)(=O)c1ccc(CNC(=O)c2cc3c(s2)C(C(C)C)N(C[C@H]2CC[C@H](C(F)(F)F)CC2)C3)nc1 (single isomer, unassigned) [Example 1]
EC50 (RORC2-LBD): < 100 nM | effect on reducing the clinical scores compared with 5 mg/kg of methotrexate ([1]; 75 mg/kg by intraperitoneal injection, intragastric administration and dorsal application, FIG. 5): equivalent | effect on the clinical scores (skin scales, induration) ([1]; 75 mg/kg by intraperitoneal injection, intragastric administration and dorsal application, p<0.01, FIG. 5): reduce the clinical scores significantly | Clinical scores (Mean ± SEM, n = 8) ([1]; ig, Day 1): 0 ± 0 | Clinical scores (Mean ± SEM, n = 8) ([1]; ig, Day 2): 0.31 ± 0.13 | Clinical scores (Mean ± SEM, n = 8) ([1]; ig, Day 3): 0.50 ± 0.19 | Clinical scores (Mean ± SEM, n = 8) ([1]; ig, Day 4): 1.29 ± 0.21 | Clinical scores (Mean ± SEM, n = 8) ([1]; ig, Day 5): 1.64 ± 0.18 | Clinical scores (Mean ± SEM, n = 8) ([1]; ip, Day 1): 0 ± 0 | Clinical scores (Mean ± SEM, n = 8) ([1]; ip, Day 2): 0.25 ± 0.13 | Clinical scores (Mean ± SEM, n = 8) ([1]; ip, Day 3): 0.50 ± 0.16 | Clinical scores (Mean ± SEM, n = 8) ([1]; ip, Day 4): 1.25 ± 0.19 | Clinical scores (Mean ± SEM, n = 8) ([1]; ip, Day 5): 1.81 ± 0.25 | Clinical scores (Mean ± SEM, n = 8) ([1]; topical, Day 1): 0 ± 0 | Clinical scores (Mean ± SEM, n = 8) ([1]; topical, Day 2): 0.25 ± 0.13 | Clinical scores (Mean ± SEM, n = 8) ([1]; topical, Day 3): 0.44 ± 0.15 | Clinical scores (Mean ± SEM, n = 8) ([1]; topical, Day 4): 0.94 ± 0.24 | Clinical scores (Mean ± SEM, n = 8) ([1]; topical, Day 5): 1.43 ± 0.20
